# Key:
# Type in all cases: in vivo
# [1] = test system: Large crabgrass; assay: Herbicidal activity at different growth stages, fresh weight suppression; details: .12 kg/ha, fresh weight two weeks after treatment
# [2] = test system: Kentucky bluegrass; assay: Selective control of grassy weeds in turf (Example 3-1), visual rating; details: four weeks after spray, 0-100 scale (100=completely killed)
# Description: (§1) Commercially available sod mats of zoysiagrass and bentgrass, Kentucky bluegrass, and perennial ryegrass were purchased. After cutting each turf sod mat in a size of 10 cm×20 cm, it was transplanted to a rectangular plastic pot having a surface area of 300 cm^2 wherein mixed soils including blend of a bed soil (Boonong, Horticultural Nursery Soil No. 3) and sandy loam soil were filled (mixing ratio, 1:1). After transplanting, the grass was mowed (0.5˜1.0 cm in height) once a week, and kept for one month in a greenhouse maintained at 25˜30° C. (day) or 15˜25° C. (night). Then three strips of 1 cm width were removed by excision with a scissor. The open space was filled with a new soil, and seeds of large crabgrass, annual bluegrass, or goosegrass were sown. The pots were kept in a greenhouse. When the said weeds were grown up to the 3 leaf stage, another set was prepared in the same method. The first set represented post-emergence (POST) and the second set represented pre-emergence (PRE) stages of the weeds (large crabgrass, annual bluegrass, goosegrass). Then the test compound was applied at 0.25, 0.5. 1.0, 2.0, and 4.0 kg/ha. Spray was made by a track sprayer equipped with a Teejet 8002 nozzle. Spray volume was adjusted to 2,000 L/ha. The spray solution was prepared by dissolving the “test substance” in acetone and adding the same volume of 0.2% (v/v) Tween 20 aqueous solution. Four weeks after the spray of the test substance, phytotoxicity to the turfgrass and herbicidal activity to the said weeds were visually evaluated based on 0 to 100 scale (0: no phytotoxic effect, 100: completely killed). The test was conducted in a completely randomized design with 3 replicates.
# [3] = test system: Zoysiagrass; assay: as above; details: four weeks after spray, 0-100 scale (100=completely killed)
# Description: as §1
# [4] = test system: Bentgrass; assay: as above; details: four weeks after spray, 0-100 scale (100=completely killed)
# Description: as §1
# [5] = test system: Large crabgrass; assay: as above; details: four weeks after spray, 0-100 scale (100=completely killed); for Herbicidal activity, visual: Weeds LCG (POST): 3 leaf stage
# Description: as §1
# [6] = test system: Annual bluegrass; assay: as above; details: four weeks after spray, 0-100 scale (100=completely killed); for Herbicidal activity, visual: Weeds ABG (POST): 3 leaf stage
# Description: as §1
smiles,measurement,setting,value
"Cc1ccsc1C1=NOC(C)(COCc2c(F)cccc2F)C1 (centres unmarked) [test substance, 5-(2,6-difluorobenzyl)oxymethyl-5-methyl-3-(4-methylthiophen-5-yl)-1,2-isoxazoline]",Suppression ratio relative to the biomass of the untreated group: Large crabgrass 1 leaf,[1],95%
same,Suppression ratio relative to the biomass of the untreated group: Large crabgrass 3 leaf,[1],23%
same,Suppression ratio relative to the biomass of the untreated group: Large crabgrass PRE,[1],84%
same,"Phytotoxicity, visual: Turfgrass KBG",[2]; 0.25 kg/ha,0
same,"Phytotoxicity, visual: Turfgrass KBG",[2]; 0.5 kg/ha,0
same,"Phytotoxicity, visual: Turfgrass KBG",[2]; 1 kg/ha,0
same,"Phytotoxicity, visual: Turfgrass KBG",[2]; 2 kg/ha,0
same,"Phytotoxicity, visual: Turfgrass KBG",[2]; 4 kg/ha,21
same,"Phytotoxicity, visual: Turfgrass ZSG",[3]; 0.25 kg/ha,0
same,"Phytotoxicity, visual: Turfgrass ZSG",[3]; 0.5 kg/ha,0
same,"Phytotoxicity, visual: Turfgrass ZSG",[3]; 1 kg/ha,0
same,"Phytotoxicity, visual: Turfgrass ZSG",[3]; 2 kg/ha,0
same,"Phytotoxicity, visual: Turfgrass ZSG",[3]; 4 kg/ha,12
same,"Phytotoxicity, visual: Turfgrass BTG",[4]; 0.25 kg/ha,0
same,"Phytotoxicity, visual: Turfgrass BTG",[4]; 0.5 kg/ha,0
same,"Phytotoxicity, visual: Turfgrass BTG",[4]; 1 kg/ha,0
same,"Phytotoxicity, visual: Turfgrass BTG",[4]; 2 kg/ha,0
same,"Phytotoxicity, visual: Turfgrass BTG",[4]; 4 kg/ha,10
same,"Herbicidal activity, visual: Weeds LCG (POST)",[5]; 0.25 kg/ha,80
same,"Herbicidal activity, visual: Weeds LCG (PRE)",[5]; 0.25 kg/ha,100
same,"Herbicidal activity, visual: Weeds LCG (POST)",[5]; 0.5 kg/ha,90
same,"Herbicidal activity, visual: Weeds LCG (PRE)",[5]; 0.5 kg/ha,100
same,"Herbicidal activity, visual: Weeds LCG (POST)",[5]; 1 kg/ha,95
same,"Herbicidal activity, visual: Weeds LCG (PRE)",[5]; 1 kg/ha,100
same,"Herbicidal activity, visual: Weeds LCG (POST)",[5]; 2 kg/ha,100
same,"Herbicidal activity, visual: Weeds LCG (PRE)",[5]; 2 kg/ha,100
same,"Herbicidal activity, visual: Weeds LCG (POST)",[5]; 4 kg/ha,100
same,"Herbicidal activity, visual: Weeds LCG (PRE)",[5]; 4 kg/ha,100
same,"Herbicidal activity, visual: Weeds ABG (POST)",[6]; 0.25 kg/ha,60
same,"Herbicidal activity, visual: Weeds ABG (PRE)",[6]; 0.25 kg/ha,100
same,"Herbicidal activity, visual: Weeds ABG (POST)",[6]; 0.5 kg/ha,75
same,"Herbicidal activity, visual: Weeds ABG (PRE)",[6]; 0.5 kg/ha,100
same,"Herbicidal activity, visual: Weeds ABG (POST)",[6]; 1 kg/ha,83
same,"Herbicidal activity, visual: Weeds ABG (PRE)",[6]; 1 kg/ha,100
same,"Herbicidal activity, visual: Weeds ABG (POST)",[6]; 2 kg/ha,92
same,"Herbicidal activity, visual: Weeds ABG (PRE)",[6]; 2 kg/ha,100
same,"Herbicidal activity, visual: Weeds ABG (POST)",[6]; 4 kg/ha,95
same,"Herbicidal activity, visual: Weeds ABG (PRE)",[6]; 4 kg/ha,100

# Source: patent US8445409B2, “Use of 5-benzyloxymethyl-1,2-isoxazoline derivatives as a herbicide” (Moghu Research Center Ltd., priority 2007, dated 2013)
